Laboratory results published in patent US4426389A, “Derivatives of clavulanic acid, a process for their preparation and their use” (Beecham Group Limited, priority 1979, dated 1984).
In brackets after ≈: the same amount, converted by molar mass.

Tests used:
Assay type in all cases: cell-based
Strep. Pneumoniae = test: Antibacterial activity, MIC, Strep. Pneumoniae; conditions: Streptococcus pneumoniae
Description: (§1) Antibacterial activity of 9-N-(2'-cyanoethyl)aminodeoxyclavulanic acid, MIC μg/ml.

Strep. Pyogenes = test: Antibacterial activity, MIC, Strep. Pyogenes; conditions: Streptococcus pyogenes
Description: as §1

Staph. aureus Russell [1] = test: MIC by standard microtitre technique (dilution in tryptone soy broth), Staph. aureus Russell; conditions: Staphylococcus aureus, alone
Experimental: (§2) By a standard microtitre technique the MIC values for ampicillin alone, ampicillin and 9-N-(2'-cyanoethyl)aminodeoxyclavulanic acid and 9-N-(2'-cyanoethyl)aminodeoxyclavulanic acid alone were determined.
(§3) MIC μg/ml (dilution in tryptone soy broth)

Staph. aureus Oxford = test: Antibacterial activity, MIC, Staph. aureus Oxford; conditions: Staphylococcus aureus
Description: as §1

E. coli JT39 = test: MIC by standard microtitre technique (dilution in tryptone soy broth), E. coli JT39; conditions: Escherichia coli, alone
Experimental: as §2, §3

Kleb. aerogenes E70 = test: MIC by standard microtitre technique (dilution in tryptone soy broth), Kleb. aerogenes E70; conditions: Klebsiella aerogenes, alone
Staph. aureus Russell [2] = test: Antibacterial activity, MIC, Staph. aureus Russell; conditions: Staphylococcus aureus
Description: as §1

Compound | MIC (Strep. Pneumoniae) [µg/mL] | MIC (Strep. Pyogenes) [µg/mL] | MIC (Staph. aureus Russell [1]) [µg/mL] | MIC (Staph. aureus Oxford) [µg/mL] | MIC (E. coli JT39) [µg/mL] | MIC (Kleb. aerogenes E70) [µg/mL] | MIC (Staph. aureus Russell [2]) [µg/mL]
N#CCCNC/C=C1\O[C@@H]2CC(=O)N2[C@H]1C(=O)O [9-N-(2'-Cyanoethyl)aminodeoxyclavulanic acid] | 5 (≈ 19.9 µM) | 10 (≈ 39.8 µM) | 16 (≈ 63.7 µM) | 10 to 20 (≈ 39.8 to 79.6 µM) | 31 (≈ 123 µM) | 250 (≈ 995 µM) | 10 to 20 (≈ 39.8 to 79.6 µM)
CC1(C)S[C@@H]2[C@H](NC(=O)[C@H](N)c3ccccc3)C(=O)N2[C@H]1C(=O)O [Ampicillin, ampicillin, reference compound] | – | – | 500 to 1000 (≈ 1430 to 2860 µM) | – | – | 500 to 1000 (≈ 1430 to 2860 µM) | –
